Measurements as given in PubChem BioAssay AID1996.
≈ marks a conversion by molar mass, not a printed value.

details: buffer; pH 7.4; 200.0 µM

`COc1ccc(S(=O)(=O)NCCCN2CCCC2=O)cc1OC` and `Cn1c(=O)n(C)c2cc(S(=O)(=O)NCC(=O)O)ccc21` cannot be ordered by solubility kinetic: 47.4 µg/mL (≈ 138 µM) for the first, over 44.9 µg/mL for the second.

`O=C(c1cccc([N+](=O)[O-])c1)c1ccc2c(c1)OCCOCCOCCO2` and `O=C(NCc1ccc2c(c1)OCO2)c1cc([N+](=O)[O-])ccc1N1CCOCC1` cannot be ordered by solubility kinetic: over 56 µg/mL for the first, over 57.8 µg/mL for the second.

Compared with `CCOC(=O)c1cccc(N2C(=O)C3C4C=CC(CC4)C3C2=O)c1` (centres undefined), `O=C1C2C3C=CC(CC3)C2C(=O)N1c1ccccc1` (centres undefined) is 7-fold higher in solubility kinetic: 3.7 µg/mL (≈ 11.4 µM) for the first, 25.9 µg/mL (≈ 102 µM) for the second.

Compared with `O=C(O)C1C2CCC(O2)C1C(=O)Nc1ccccc1Br` (centres undefined), `Cc1ccccc1NC(=O)C1COc2ccccc2O1` (centres undefined) is lower in solubility kinetic: over 51 µg/mL for the first, 32.6 µg/mL (≈ 121 µM) for the second.

Going from `COCc1cc(=O)[nH]c(-c2ccc(C(F)(F)F)cc2)n1` to `CN(C)c1ccc(-c2nc3ccccc3c(=O)[nH]2)cc1`, the solubility kinetic falls from over 42.6 µg/mL to 1.9 µg/mL (≈ 7.16 µM).

Going from `O=C(Cc1ccccc1F)Nc1ccccc1-c1ccccc1` to `N#Cc1ccc(C(=O)Nc2cccc3ccccc23)c(F)c1`, the solubility kinetic falls from 7.1 µg/mL (≈ 23.3 µM) to 0.9 µg/mL (≈ 3.1 µM) (7.9-fold).

`Cc1ccc[n+](CC(=O)Nc2ccc([N+](=O)[O-])cc2)c1.[Cl-]` and `Cc1ccc(OCC(=O)NC(C)c2ccccc2)cc1` (centres undefined) cannot be ordered by solubility kinetic: over 46.2 µg/mL for the first, over 40.4 µg/mL for the second.

Going from `CSc1ncccc1C(=O)OCC(=O)NC12CC3CC(CC(C3)C1)C2` to `O=C(O)c1ccc(CNC(=O)C23CC4CC(CC(C4)C2)C3)cc1`, the solubility kinetic rises from 21.8 µg/mL (≈ 60.5 µM) to over 47 µg/mL.

`OCc1ccccc1OCCCOc1cccc2cccnc12` and `CN(C(=O)Nc1cnc2ccccc2c1)c1ccccc1` cannot be ordered by solubility kinetic: over 46.4 µg/mL for the first, over 41.6 µg/mL for the second.

`C=CCNc1ccc(N2C(=O)CCCC2=O)cc1[N+](=O)[O-]` and `Cc1ccc(C)c2sc(NC(=O)CN3C(=O)CCC3=O)nc12` cannot be ordered by solubility kinetic: over 43.4 µg/mL for the first, 45.5 µg/mL (≈ 143 µM) for the second.

`CC1C2(C)OCC(C#N)(C(=N)O2)C1(C#N)C#N` (centres undefined) and `CC12COC3(C(=O)Nc4ccccc4)CC1CCC32C` (centres undefined) cannot be ordered by solubility kinetic: over 34.5 µg/mL for the first, over 40.7 µg/mL for the second.

`O=C(Cn1ccc([N+](=O)[O-])n1)NCc1ccccc1` and `O=C(CCc1ccccc1)NCc1ccc2c(c1)OCO2` cannot be ordered by solubility kinetic: over 39 µg/mL for the first, over 42.5 µg/mL for the second.

First: Nc1nc(Nc2cccc(F)c2)nc(N2CCOCC2)c1[N+](=O)[O-]
Second: O=C(Nc1ccccc1N1CCOCC1)c1ccc2c(c1)OCO2
The solubility kinetic of the first is 1.6-fold lower: 2.9 µg/mL (≈ 8.67 µM) for the first, 4.7 µg/mL (≈ 14.4 µM) for the second.

First: Cc1ccc(NC(=O)COC(=O)c2cccc(C)c2[N+](=O)[O-])cc1S(=O)(=O)N1CCCCC1
Second: Cc1ccc(C)c(S(=O)(=O)N2CCN(C(=O)[C@H](Cc3ccccc3)NC(=O)c3ccco3)CC2)c1
The solubility kinetic of the first is 4.8-fold lower: 3.8 µg/mL (≈ 7.99 µM) for the first, 18.2 µg/mL (≈ 36.7 µM) for the second.

`Cc1ccc(NC(=O)NCCN2CCCCC2)cc1C` and `CN1CCN(CCCNC(=S)Nc2ccc(F)c(Cl)c2)CC1` are within 1.5-fold of each other in solubility kinetic: 37.4 µg/mL (≈ 136 µM) for the first, 43 µg/mL (≈ 125 µM) for the second.

Going from `NS(=O)(=O)c1ccc(CCNC(=O)c2ccc3c(=O)n4c(nc3c2)CCCCC4)cc1` to `NS(=O)(=O)c1ccc(CCNC(=O)NC2CCCCC2)cc1`, the solubility kinetic rises from 8.2 µg/mL (≈ 18.6 µM) to over 48.8 µg/mL.

`CC(C)(C)NC(=O)N1CCCN(c2ccc(C(F)(F)F)cn2)CC1` and `CN1CCN(C(=O)c2ccc(F)c(F)c2)CC1` cannot be ordered by solubility kinetic: over 51.7 µg/mL for the first, over 36 µg/mL for the second.

`CCC(CO)n1c(=S)[nH]c2cc(OC)c(OC)cc2c1=O` (centres undefined) and `COc1cc(OC)c(OC)cc1CNCc1ccc2c(c1)OCO2` cannot be ordered by solubility kinetic: over 46.6 µg/mL for the first, over 49.7 µg/mL for the second.

Going from `Cn1c(=S)n(C)c2ccccc21` to `Cc1ccc2c(ccc(=S)n2C)c1`, the solubility kinetic falls from over 26.7 µg/mL to 24.1 µg/mL (≈ 127 µM).

Going from `Cc1ccc(NC(=O)NCc2ccccn2)c(C)c1` to `Cc1ccccc1NC(=S)NC(=O)/C=C/c1ccco1`, the solubility kinetic falls from over 38.3 µg/mL to 38.3 µg/mL (≈ 134 µM).

`Cc1ccc(S(=O)(=O)N2CCN(C)CC2)c2nsnc12` and `CN1CCN(c2ccc([N+](=O)[O-])c(Sc3ccccn3)c2)CC1` cannot be ordered by solubility kinetic: over 46.9 µg/mL for the first, over 49.6 µg/mL for the second.

First: O=c1c2ccccc2nc(/C=C/c2ccc(Br)cc2)n1CCO
Second: CC(=O)N(C)c1ccc(N=Cc2c(O)ccc3ccccc23)cc1
The solubility kinetic of the first is lower: 0.8 µg/mL (≈ 2.15 µM) for the first, over 47.8 µg/mL for the second.

Going from `Cc1ccc2nc3c(cc(C#N)c(=N)n3Cc3cccnc3)c(=O)n2c1` to `O=C(CSc1cccc2cccnc12)Nc1cc(C(=O)O)cc(C(=O)O)c1`, the solubility kinetic rises from 2.1 µg/mL (≈ 6.13 µM) to 52 µg/mL (≈ 136 µM) (25-fold).

Compared with `Cc1ccc(NC(=O)c2ccc3c(c2)CCN3S(C)(=O)=O)cc1C`, `COc1ccc(NC(=O)c2ccco2)cc1NC(=O)c1cccc(F)c1` is lower in solubility kinetic: 2 µg/mL (≈ 5.81 µM) for the first, under 0.4 µg/mL for the second.

Going from `O=C(Cc1ccc(Cl)c(Cl)c1)N1CCOCC1` to `COc1cc(C(=S)N2CCOCC2)ccc1OC(=O)c1ccccc1C`, the solubility kinetic falls from over 41.1 µg/mL to 10.3 µg/mL (≈ 27.7 µM).

Going from `COc1ccc(/C=N/OC(=O)c2ccc(Cl)cc2)c(Cl)c1OC` to `C/C=C/c1ccc(OCC(=O)Nc2ccncc2)c(OC)c1`, the solubility kinetic rises from under 0.8 µg/mL to 42.1 µg/mL (≈ 141 µM).

First: NC(=O)COC(=O)c1c2c(nc3ccccc13)CCCC2
Second: CCOC(=O)C1=C(C)NC2=C(C(=O)OC2)C1c1ccccc1 (centres undefined)
The solubility kinetic of the first is lower: 39.4 µg/mL (≈ 139 µM) for the first, over 44.9 µg/mL for the second.

Going from `CCOC(=O)CNC(=O)C12CC3CC(C1)CC(c1ccc(C)cc1)(C3)C2` to `CC1CC(C)(C)NC(=S)N1CC(=O)NCc1ccc(F)cc1` (centres undefined), the solubility kinetic rises from 3.9 µg/mL (≈ 11 µM) to 41.5 µg/mL (≈ 128 µM) (11-fold).

Going from `CCOc1ccccc1C(=S)NC1CCCCC1` to `COc1ccc(NC(=O)NC2CCCCCCC2)c(OC)c1`, the solubility kinetic falls from 14.5 µg/mL (≈ 55 µM) to 5.5 µg/mL (≈ 18 µM) (2.6-fold).

`CC1(C)[C@H]2CC[C@]1(C)[C@@H](OC(=O)C[N+]1(C)CCOCC1)C2.[I-]` and `COC(=O)C1C(=O)c2c(C)noc2CC1(C)C` (centres undefined) cannot be ordered by solubility kinetic: 60.1 µg/mL for the first, over 35.6 µg/mL for the second.

`COc1cc(CN2CCCC(C)C2)ccc1OCc1ccccc1` (centres undefined) and `CCCN1CCC[C@H](c2cccc(O)c2)C1.Cl` cannot be ordered by solubility kinetic: 42.9 µg/mL (≈ 132 µM) for the first, over 38.4 µg/mL for the second.

Going from `CCCCC(=O)Nc1cccc(-c2nc3ncccc3o2)c1C` to `O=C(Nc1ncc2c(n1)-c1ccccc1OC2)c1cccc([N+](=O)[O-])c1`, the solubility kinetic falls from over 46.4 µg/mL to 1.4 µg/mL (≈ 4.02 µM).

`CCc1c(C)nc(N)nc1N1N=C1SCCOc1ccccc1` and `CCCCN(C(=O)Oc1ccccc1)C1CCS(=O)(=O)C1` (centres undefined) cannot be ordered by solubility kinetic: over 49.4 µg/mL for the first, over 46.7 µg/mL for the second.

Compared with `COc1cc(Nc2ccc(S(N)(=O)=O)cc2)c([N+](=O)[O-])nc1[N+](=O)[O-]`, `Cn1ccnc1Sc1ccc(C=O)cc1[N+](=O)[O-]` is higher in solubility kinetic: 3.8 µg/mL (≈ 10.3 µM) for the first, over 39.5 µg/mL for the second.

Going from `CC(CC(=O)NCCc1ccc(F)cc1)c1ccccc1` (centres undefined) to `CC(NC(=O)c1ccc(N(C)C)cc1)c1ccc(F)cc1` (centres undefined), the solubility kinetic falls from 39.3 µg/mL (≈ 138 µM) to 6.5 µg/mL (≈ 22.7 µM) (6-fold).

First: S=C(NCc1ccc(Cl)cc1)N1CCN(c2ccccn2)CC1
Second: S=C(Nc1ccccc1)Nc1ccc(Cl)cn1
The solubility kinetic of the first is lower: under 0.2 µg/mL for the first, 2.1 µg/mL (≈ 7.96 µM) for the second.

Compared with `O=C(NCC1CCCCC1)c1cc([N+](=O)[O-])ccc1Cl`, `COc1cc(C(=O)NNC(=O)C2CCCC2)cc(OC)c1OC` is higher in solubility kinetic: 8 µg/mL (≈ 27 µM) for the first, over 48.4 µg/mL for the second.

Going from `COc1ccc(C(=O)Nc2nc(-c3ccccn3)cs2)cc1S(=O)(=O)N1CCOCC1` to `Cc1nc(-c2ccc(C(=O)N3CCCC3)cc2)cs1`, the solubility kinetic rises from 6.8 µg/mL (≈ 14.8 µM) to over 40.9 µg/mL.

Compared with `O=C(O)CCCC(=O)N1CCN(c2ncccn2)CC1`, `O=C(Nc1ccccc1C(=O)Nc1ccccn1)c1cc(F)c(F)cc1Cl` is lower in solubility kinetic: over 41.7 µg/mL for the first, under 0.3 µg/mL for the second.

`CN(CC(=O)NC1CC1)S(=O)(=O)c1ccc(F)cc1` and `CCOc1ccc(C2CC(=O)NC2=O)cc1` (centres undefined) cannot be ordered by solubility kinetic: over 42.9 µg/mL for the first, over 32.9 µg/mL for the second.

`C(=Nc1cccc2c(N=Cc3ccco3)cccc12)c1ccco1` and `FC(F)Oc1ccc(-c2c[n+]3c(n2-c2ccccc2)CCCCC3)cc1` are within 1.5-fold of each other in solubility kinetic: 46.7 µg/mL (≈ 149 µM) for the first, 50.7 µg/mL for the second.

First: CCN1C(=O)/C(=C\c2ccncc2)SC1=S
Second: CC(C)OC(=O)NCCOC(=O)Nc1ccc(Cl)cc1
The solubility kinetic of the first is 5.9-fold lower: 6.2 µg/mL (≈ 24.8 µM) for the first, 36.5 µg/mL (≈ 121 µM) for the second.
